Results from patent publication US10085998B2, “Salts of potassium ATP channel openers and uses thereof” (Essentialis, Inc., priority 2006, dated 2018).
Values after ≈ are worked out from the molar mass of the structure shown. Counter-ions that a name gives are not always drawn. Like-named read-outs stand apart in the source and are kept apart here.

Tests used:
[1] = Excipient compatibility study for diazoxide choline salt; type: physicochemical; details: excipient 100 mg + diazoxide choline salt 100 mg
[2] = Form conversion and degradation under thermal stress
Protocol: Studies were also conducted to evaluate the likelihood for conversion and degradation under thermal stress.

[3] = Moisture sorption analysis; type: physicochemical; details: for Moisture sorption: hygroscopicity: relative humidity scan; for XRPD pattern following the moisture sorption/desorption analysis: after moisture sorption experiment; for Hysteresis upon desorption / hydrate formation: desorption scan
Protocol: Moisture Sorption Analysis was performed with a Hiden IGAsorp Moisture Sorption Instrument. Samples were first dried at 0% relative humidity at 25° C. until an equilibrium weight was reached, or for a maximum of 4 hours. Samples were then subjected to an isothermal (25° C.) scan from 10-90% relative humidity in steps of 10%. The samples were allowed to equilibrate to an asymptotic weight at each point for a maximum of 4 hours. Following absorption, a desorption scan from 85% relative humidity (at 25° C.) was run in steps of −10%, again allowing a maximum of 4 hours for the samples to equilibrate. The resulting samples after desorption were dried at 80° C. for two hours and analyzed by XRPD.

[4] = Solubility measurements at pH 2, 7 and 12 in phosphate buffer; details: solids after solubility analysis (choline salt: pH 2 and 7 only)
Protocol: (§1) Solubility concentrations were determined using area-percent calculations with HPLC calibration curves.

[5] = Slurry studies (inter-conversion of the solid form)
Protocol: Slurry experiments were performed on each form to determine propensity for conversion and to see if a unique form could be generated.

[6] = pH 2
Protocol: as §1

[7] = all physiological relevant pH values from pH 2.0 to pH 8.5; deionized water, buffered aqueous solutions
Protocol: UV spectroscopy was performed with a Perkin-Elmer Lambda 25 spectrometer. Samples were dissolved in acetonitrile, water and a buffer system having a pH between 5.6 and 10. Spectra were acquired between 340 and 190 nm, using a 1 cm path length with background correction.

[8] = Additional solubility studies in 100 mM phosphate buffer (HPLC); type: physicochemical; details: pH 7.3, aqueous buffer, thermodynamic from solid, pH 7.30, pH after 18 h slurry 7.31, ambient temperature
Protocol: Each determination was carried out in duplicate, slurrying each sample in a 100 mM phosphate buffer solution, pH 7.00. […] After this time all samples were centrifuged, and the supernatant was diluted with mobile phase (MeCN/Water.).

[9] = physchem; details: thermodynamic from solid
Protocol: as §1

[10] = Crystallization screening for polymorphic forms (single/binary solvent, fast/slow cooling, XRPD); type: physicochemical
[11] = Solubility screen of diazoxide potassium salt in various solvents; type: physicochemical
From the text: Solvents affording poor to fair solubility were used as antisolvents in binary/ternary crystallizations as well as slurry studies. Table 29 summarizes the results of the solubility screen.

[12] = 60° C., closed, protected from light, 7 and 14 days
[13] = n-heptane, dichloromethane (CH2Cl2) and toluene, 7 and 14 days
[14] = 25° C., listed as Choline diazoxide salt
[15] = 25° C., listed as Potassium diazoxide salt

In the case of CC1=Nc2ccc(Cl)cc2S(=O)(=O)N1 [Diazoxide Control], the “1 Month 40° C./75% RH % (w/w)” value ([1]; one-month storage 40° C./75% RH) is reported as 99.0 % (w/w) and the “1 Month 50° C. % (w/w)” value ([1]; one-month storage 50° C.) is reported as 99.4 % (w/w).

For CC1=Nc2ccc(Cl)cc2S(=O)(=O)[N-]1.C[N+](C)(C)CCO [Form B], the “Form conversion and degradation under thermal stress (XRPD, DSC)” value (shortened to “Form conversion and degradation”) [2, 12] was “Stable after 14 days at”, the “Moisture sorption: hygroscopicity” value ([3]; 25° C.) was “Hygroscopic - deliquesced” and the “Water absorbed at 60% RH” value ([3]; 25° C.) was 7.4 wt %. For the same molecule, the “XRPD pattern following the moisture sorption/desorption analysis” value [3] was “remained in the Form B crystal structure”, the “XRPD pattern of the solids obtained after the solubility analysis” value (“XRPD pattern of the solids obtained” for short) [4] was “Form B of the choline salt of diazoxide was still present” and the “Slurry study: conversion of solid form” value [5, 13] was “form conversion was not observed”.

For CC1=Nc2ccc(Cl)cc2S(=O)(=O)[N-]1.C[N+](C)(C)CCO [choline salt of diazoxide], the “XRPD pattern of the solids obtained” value [6] was “changed back to the free form diazoxide material”, the “Degradation by HPLC after thermal stress” value [2] was “did not show any significant degradation” and the “Form conversion and degradation” value [2] was “consistent with the starting material, as well as the presence of additional unique peaks”. The “Hysteresis upon desorption / hydrate formation” value ([3]; 25° C.) was “does not form a stable hydrate”, the “Hysteresis upon desorption / hydrate formation” value [3, 14] was “no hysteresis” and the “Moisture sorption: hygroscopicity” value ([3]; 25° C.) was “hygroscopic”. The “Moisture sorption: hygroscopicity” value [3, 14] was “deliquescent -”, the “Water absorbed at 80% RH” value ([3]; 25° C., 80% RH) was “over 28 wt %” and the “XRPD pattern following the moisture sorption/desorption analysis” value [3] was “changed to an alternate crystalline form”. For the same molecule, the “Fate of the salt in aqueous medium (UV/Vis absorbance)” value [7] was “hydrolyzes to the free base of diazoxide and choline hydroxide” and the “Slurry study: conversion of solid form” value ([5]; n-heptane, dichloromethane (CH2Cl2) and toluene, 7 and 14 days, listed as Choline diazoxide salt) was “no propensity of inter-conversion”.

In the case of CC1=NS(=O)(=O)c2cc(Cl)ccc2N1 [free form diazoxide, 7-chloro-3-methyl-2H-1,2,4-benzothiadiazine 1, 1 dioxide, reference compound], the “Form conversion and degradation” value [2, 12] is reported as “no conversion or degradation”, the solubility at 18 h [8] is reported as 0.07 mg/mL (≈ 303 µM) and the “Hysteresis upon desorption / hydrate formation” value ([3]; 25° C.) is reported as “does not form a stable hydrate”. The “Hysteresis upon desorption / hydrate formation” value ([3]; 25° C., listed as Free form) was “no hysteresis”, the “Moisture sorption: hygroscopicity” value ([3]; 25° C.) was “non-hygroscopic” and the “Water absorbed at 60% RH” value ([3]; 25° C.) was “approximately 0.04 wt %”. The “Water absorbed at 90% RH” value ([3]; 25° C.) was about 0.20 wt %, the “XRPD pattern following the moisture sorption/desorption analysis” value [3] was “same crystalline form” and the “Slurry study: conversion of solid form” value ([5]; room temperature, no light, water, isopropyl alcohol, dichloromethane and toluene, 14 days) was “did not convert to alternate crystal forms”.

For CC1=NS(=O)(=O)c2cc(Cl)ccc2N1 [potassium salt of diazoxide], the “XRPD pattern of the solids obtained” value [6] was “changed back to the free form diazoxide material”, the solubility ([9]; pH 2, aqueous buffer) was 9.9 mg/mL and the solubility ([9]; pH 7, aqueous buffer) was 14.4 mg/mL. The solubility ([9]; pH 12, aqueous buffer) was 43 mg/mL, the Form ([10]; XRPD, single-solvent, fast-cooling, MeCN, 42.40 mg/mL, 80 ° C.) was “C +” and the Precipitate ([10]; binary-solvent, fast-cooling, McCN 0.6 mL (dissolved at 80° C.), anti-solvent CH2Cl2 1.0 mL) was “Yes”. The Precipitate ([10]; binary-solvent, fast-cooling, McCN 0.6 mL (dissolved at 80° C.), anti-solvent Dioxane 6.0 mL) was “Yes”, the Precipitate ([10]; binary-solvent, fast-cooling, McCN 0.6 mL (dissolved at 80° C.), anti-solvent EtOAc 6.0 mL) was “Yes” and the Precipitate ([10]; binary-solvent, fast-cooling, McCN 0.6 mL (dissolved at 80° C.), anti-solvent Heptane 2.0 mL) was “Yes”. The Precipitate ([10]; binary-solvent, fast-cooling, McCN 0.6 mL (dissolved at 80° C.), anti-solvent IPAc 3.0 mL) was “Yes”, the Precipitate ([10]; binary-solvent, fast-cooling, McCN 0.6 mL (dissolved at 80° C.), anti-solvent MTBE 1.0 mL) was “Yes” and the Precipitate ([10]; binary-solvent, fast-cooling, McCN 0.6 mL (dissolved at 80° C.), anti-solvent THF 6.0 mL) was “No/Evap”. For the same molecule, the Precipitate ([10]; binary-solvent, fast-cooling, McCN 0.6 mL (dissolved at 80° C.), anti-solvent Toluene 1.0 mL) was “Yes”, the Precipitate ([10]; binary-solvent, fast-cooling, McCN 0.6 mL (dissolved at 80° C.), anti-solvent c-Hexane 2.0 mL) was “Yes” and the Precipitate ([10]; single-solvent, fast-cooling, Acetone, 10.35 mg/mL, 55 ° C.) was “No/Evap”. For the same molecule, the Precipitate ([10]; single-solvent, fast-cooling, EtOAc, 3.52 mg/mL, 75 ° C.) was “Yes”, the Precipitate ([10]; single-solvent, fast-cooling, IPA, 75.67 mg/mL, 62 ° C.) was “Yes” and the Precipitate ([10]; single-solvent, fast-cooling, MeCN, 42.40 mg/mL, 80 ° C.) was “Yes”. For the same molecule, the Precipitate ([10]; single-solvent, fast-cooling, Water, 13.73 mg/mL, 95 ° C.) was “Yes”, the Precipitate ([10]; single-solvent, fast-cooling, i-AmOH, 65.67 mg/mL, 73 ° C.) was “Yes” and the Precipitate ([10]; single-solvent, fast-cooling, t-AmOH, 8.76 mg/mL, 95 ° C.) was “Yes”. For the same molecule, the Precipitate ([10]; single-solvent, slow-cooling, IPA, 71.67 mg/mL, 80 ° C.) was “No/Evap”, the Precipitate ([10]; single-solvent, slow-cooling, MeCN, 45.60 mg/mL, 80 ° C.) was “Yes” and the Precipitate ([10]; single-solvent, slow-cooling, i-AmOH, 68.67 mg/mL, 80 ° C.) was “Yes”. For the same molecule, the Conc. ([11]; solvent Acetone, 55 ° C., 1.6 mg in 4.00 mL) was 400 µg/mL, the Soluble ([11]; solvent Acetone, 55 ° C., at 0.40 mg/mL) was “Yes” and the Conc. ([11]; solvent CH2Cl2, 55 ° C., 1.3 mg in 5.00 mL) was 260 µg/mL. For the same molecule, the Soluble ([11]; solvent CH2Cl2, 55 ° C., at […]) was “No”, the Conc. ([11]; solvent DMF, rt, 1.6 mg in 0.25 mL) was over 6400 µg/mL and the Soluble ([11]; solvent DMF, rt, at >6.40 mg/mL) was “Yes”. For the same molecule, the Conc. ([11]; solvent Dioxane, 55 ° C., 1.4 mg in 5.00 mL) was 280 µg/mL, the Soluble ([11]; solvent Dioxane, 55 ° C., at […]) was “No” and the Conc. ([11]; solvent EtOAc, 55 ° C., 1.8 mg in 5.00 mL) was 360 µg/mL. The Soluble ([11]; solvent EtOAc, 55 ° C., at […]) was “No”, the Conc. ([11]; solvent EtOH, 55 ° C., 2.2 mg in 0.75 mL) was 2930 µg/mL and the Soluble ([11]; solvent EtOH, 55 ° C., at […]) was “Yes”. The Conc. ([11]; solvent Heptane, 55 ° C., 1.2 mg in 5.00 mL) was 240 µg/mL, the Soluble ([11]; solvent Heptane, 55 ° C., at 0.24 mg/mL) was “No” and the Conc. ([11]; solvent IPA, 55 ° C., 2.1 mg in 1.00 mL) was 2100 µg/mL. For the same molecule, the Soluble ([11]; solvent IPA, 55 ° C., at […]) was “Yes”, the Conc. ([11]; solvent IPAc, 55 ° C., 1.7 mg in 5.00 mL) was 340 µg/mL and the Soluble ([11]; solvent IPAc, 55 ° C., at […]) was “No”. The Conc. ([11]; solvent MEK, 55 ° C., 1.5 mg in 5.00 mL) was 300 µg/mL, the Soluble ([11]; solvent MEK, 55 ° C., at 0.30 mg/mL) was “Partially” and the Conc. ([11]; solvent MTBE, 55 ° C., 1.8 mg in 5.00 mL) was 360 µg/mL. The Soluble ([11]; solvent MTBE, 55 ° C., at […]) was “No”, the Conc. ([11]; solvent MeCN, 55 ° C., 1.7 mg in 2.00 mL) was 850 µg/mL and the Soluble ([11]; solvent MeCN, 55 ° C., at 0.85 mg/mL) was “Yes”. For the same molecule, the Conc. ([11]; solvent MeOH, 55 ° C., 1.5 mg in 0.25 mL) was 6000 µg/mL, the Soluble ([11]; solvent MeOH, 55 ° C., at 6.00 mg/mL) was “Yes” and the Conc. ([11]; solvent THF, 55 ° C., 1.8 mg in 5.00 mL) was 360 µg/mL. For the same molecule, the Soluble ([11]; solvent THF, 55 ° C., at […]) was “Partially”, the Conc. ([11]; solvent Toluene, 55 ° C., 1.4 mg in 5.00 mL) was 280 µg/mL and the Soluble ([11]; solvent Toluene, 55 ° C., at […]) was “No”. The Conc. ([11]; solvent Water, 55 ° C., 1.5 mg in 5.00 mL) was 300 µg/mL, the Soluble ([11]; solvent Water, 55 ° C., at 0.30 mg/mL) was “No” and the Conc. ([11]; solvent c-Hexane, 55 ° C., 1.5 mg in 5.00 mL) was 300 µg/mL. For the same molecule, the Soluble ([11]; solvent c-Hexane, 55 ° C., at 0.30 mg/mL) was “No”, the “Degradation by HPLC after thermal stress” value ([2]; 60° C., 14 days, gradient area percent assay) was “did not show any significant degradation” and the “Form conversion and degradation” value [2, 12] was “showed unique peaks”. For the same molecule, the “Hysteresis upon desorption / hydrate formation” value ([3]; 25° C.) was “hemihydrate from 0-30% RH and a monohydrate from 35-75% RH”, the “Hysteresis upon desorption / hydrate formation” value [3, 15] was “hemi/monohydrate” and the “Moisture sorption: hygroscopicity” value ([3]; 25° C.) was “hygroscopic”. The “Moisture sorption: hygroscopicity” value [3, 15] was “deliquescent -”, the “Water absorbed at 60% RH” value ([3]; 25° C.) was 5.4 wt % and the “Water absorbed at 90% RH” value ([3]; 25° C.) was 38.3 wt %. For the same molecule, the “XRPD pattern following the moisture sorption/desorption analysis” value [3] was “changed to an alternate crystalline form”, the “Slurry study: conversion of solid form” value [5, 13] was “no propensity of inter-conversion” and the “Degradation by HPLC after slurry study” value ([5]; n-heptane, dichloromethane, toluene, gradient area percent assay) was “did not show any significant degradation”.
